Laboratory results taken from patent US20040019088A1, “Use of Epothilones in the treatment of brain diseases associated with proliferative processes” (Schering AG, priority 2002, published 2004).
“And” between values parts separate entries of the source, which are not always exact repeats. Equal entries are not always repeated. Marks after values point to notes of the source that are not given here.

What was measured:
[1] = Mouse bolus injection assay (blood and brain levels of Epothilones); conditions: for Brain plasma ratio: after 20 min, iv application; for concentration at 10 min / concentration at 20 min / concentration at 40 min / AUC(0-t) / Kp: male, SCID, mouse, in vivo, 5 mg/kg; for AUC(0-t) / Kp: iv
Method: Mouse Bolus Injection Assay
(In Vivo Assay for the Evaluation of Blood and Brain Levels of Epothilones)
Male SCID mice (20-25 g, non-leaky) were treated with a single dose of tritium-labeled Epothilones and paclitaxel (5 mg/kg; 7.4 MBq/mg; in 30% Hydroxypropyl-β-cyclodextrin (HPβCD)/NaCl iv bolus injection). Partitioning of radioactivity between blood and brain was measured by liquid scintillation counting (LSC) and HPLC-radioflow at three time points (10, 20 and 40 min) after injection.

[2] = tested on: Human U373 glioma cells; experiment: In vivo efficacy against xenografted (s.c.) and intracerebral human glioma; conditions: for i. cer. Brain Tumor Volume d 32: i.cer. U373 in NMRI nu/nu-mice; for RTV s.c. Tumors d 25 (Relative Tumor Volume): s.c. U373 in NMRI nu/nu-mice
Method: In vivo assay for the evaluation of efficacy of Epothilones against xenografted and intracerebral human glioma.
(§1) Female NMRI nu/nu-mice (20-28 g) were used for this experiment. Human U373 glioma cells were implanted s.c. (1×10^7/mouse) as well as i.cer. (2×10^5/mouse) on day 0. Treatment was started on day 7 when the s.c. tumors were approximately 0,05 cm^3 in size. […] After termination of the experiment, the size of the brain tumors was determined (Table 2).

[3] = Tolerability (deaths, body weight change) in the U373 glioma study; type: in vivo, NMRI nu/nu-mice; conditions: for BWC d 7-17 (Body Weight Change) / Deaths/total (d): NMRI nu/nu-mice
Method: as §1

[4] = in vivo; cited from earlier work
[5] = 5 mg/kg iv bolus, 3H-labeled, male SCID mice
[6] = 10 min after 5 mg/kg iv bolus, 3H-labeled, male SCID mice
[7] = 20 min after 5 mg/kg iv bolus, 3H-labeled, male SCID mice
[8] = 40 min after 5 mg/kg iv bolus, 3H-labeled, male SCID mice
[9] = Group B: 9 mg/kg i.v., days 7, 14
[10] = Group C: 2 mg/kg i.v., days 7, 9, 11, 14, 16, 18
[11] = both schedules (groups B and C) vs. untreated control

SMILES | Brain AUC (0-40 min) [1, 5] [µg·min/mL] | Brain plasma ratio [1] | concentration at 10 min [1] | concentration at 20 min [1] | concentration at 40 min [1] | AUC(0-t) [1] [ng·h/mL] | Kp [1] | Brain conc. mean [1, 6] | Brain conc. mean [1, 7] | Brain conc. mean [1, 8] | also measured
CCCC1C(=O)C(C)(C)C(O)CC(=O)OC(C(C)=Cc2csc(C)n2)CC=C(C)CCCC(C)C1O (stereo not drawn) [Compound 1, 4,8-dihydroxy-16-(1-methyl-2-(2-methyl-4-thiazolyl)-ethenyl)-1-oxa-7-(1-propyl)-5,5,9,13-tetramethyl-cyclohexadec-13-ene-2,6-dione] | 21 | higher brain plasma ratio | 800 ng/mL and 300 ng/g | 600 ng/mL and 800 ng/g | 300 ng/mL and 600 ng/g | 333 | 1 |  |  |  | 
CCCC1C(=O)C(C)(C)C(O)CC(=O)OC(C(C)=Cc2csc(C)n2)CC2OC2(C)CCCC(C)C1O (stereo not drawn) [Compound 2] | 35 | higher brain plasma ratio |  |  |  |  |  | 1.1 µg/g | 1.1 µg/g | 0.8 µg/g | Plasma AUC (0-40 min) [1, 5]: 31 µg·min/mL; Plasma conc. mean [1, 6]: 1600 ng/mL; Plasma conc. mean [1, 7]: 700 ng/mL; Plasma conc. mean [1, 8]: 300 ng/mL; AUC Ratio Brain/Plasma ([1]; partial AUC 0-40 min, 5 mg/kg iv bolus, male SCID mice): 1.2
C=CCC1C(=O)C(C)(C)C(O)CC(=O)OC(c2ccc3sc(C)nc3c2)CC2OC2(C)CCCC(C)C1O (stereo not drawn) [Compound 3, 7,11-dihydroxy-3-(2-methylbenzothiazol-5-yl)-10-(prop-2-en-1-yl)-8,8,12,16-tetramethyl-4,17-dioxabicyclo[14.1.0]heptadecane-5,9-dione] | 20 |  | 1200 ng/mL and 900 ng/g | 700 ng/mL and 300 ng/g | 300 ng/mL and 600 ng/g | 417 | 0.8 |  |  |  | i. cer. Brain Tumor Volume d 32 [2, 9]: 0.002* mm^3; RTV s.c. Tumors d 25 (Relative Tumor Volume) [2, 9]: 1.15; i. cer. Brain Tumor Volume d 32 [2, 10]: 0.96 mm^3; RTV s.c. Tumors d 25 (Relative Tumor Volume) [2, 10]: 1.40; Therapeutic effect on i.cer. U373 brain tumors [2, 11]: significant therapeutic effect; Therapeutic effect on s.c. U373 tumors [2, 11]: significant therapeutic effect; BWC d 7-17 (Body Weight Change) [3, 9]: −7%; Deaths/total (d) [3, 9]: 0/10; BWC d 7-17 (Body Weight Change) [3, 10]: −3%; Deaths/total (d) [3, 10]: 1/10; Body weight loss ([3]; treatment groups B and C): Only a moderate body weight loss (not significant)
CC(=O)O[C@H]1C(=O)[C@@]2(C)[C@H]([C@H](OC(=O)c3ccccc3)[C@]3(O)C[C@H](OC(=O)[C@H](O)[C@@H](NC(=O)c4ccccc4)c4ccccc4)C(C)=C1C3(C)C)[C@]1(OC(C)=O)CO[C@@H]1C[C@@H]2O [Paclitaxel, reference compound] | 0 |  | 800 ng/mL | 600 ng/mL | 200 ng/mL | 317 |  | <LOQ | <LOQ | <LOQ | Ability to penetrate the BBB [4]: only low ability to penetrate the BBB; Detection in the brain ([1]; 40 minutes after application): detected in the brain in considerable amounts; Concentration in brain samples ([1]; all brain samples (10, 20, 40 min)): below the limit of quantitation
